Laboratory results reported in ChEMBL document CHEMBL3044860, “13-Deoxyitol A, a new insecticidal isoryanodane diterpene from the seeds of Itoa orientalis” (2009).

Columns and labels:
Assay type in all cases: functional
[1] = test system: Spodoptera litura; assay: Antifeedant activity against third-instar larval stage of Spodoptera litura in cabbage mustard leaves
[2] = test system: Sogatella furcifera; assay: Antifeedant activity against fourth-instar nymph stage of Sogatella furcifera in tillering to booting period rice seedlings
[3] = test system: Plutella xylostella; assay: Antifeedant activity against third-instar larval stage of Plutella xylostella (diamondback moth) in cabbage mustard leaves
[4] = test system: Nilaparvata lugens; assay: Antifeedant activity against fourth-instar nymph stage of Nilaparvata lugens (brown planthopper) in tillering to booting period rice seedlings
[5] = test system: Spodoptera litura; assay: Contact toxicity against third-instar larval stage of Spodoptera litura applied topically measured per insect
[6] = test system: Plutella xylostella; assay: Contact toxicity against third-instar larval stage of Plutella xylostella (diamondback moth) applied topically measured per insect
[7] = test system: Nilaparvata lugens; assay: Contact toxicity against macropterous female Nilaparvata lugens (brown planthopper) applied topically measured per insect
[8] = test system: Sogatella furcifera; assay: Contact toxicity against macropterous female Sogatella furcifera applied topically measured per insect

Compound	AFC50 [1] [µg/mL]	AFC50 [2] [µg/mL]	AFC50 [3] [µg/mL]	AFC50 [4] [µg/mL]	LD50 [5] [µg]	LD50 [6] [µg]	LD50 [7] [µg]	LD50 [8] [µg]
C/C=C(\C)C(=O)O[C@H]1C[C@@H](OC(C)=O)[C@@]2(C(=O)OC)CO[C@H]3[C@@H](O)[C@@](C)([C@]45O[C@@]4(C)[C@@H]4C[C@H]5O[C@@H]5OC=C[C@@]54O)[C@H]4[C@]1(CO[C@]4(O)C(=O)OC)[C@@H]32 [AZADIRACHTIN A]	9.8	7	9.3	7.5				
CC(C)[C@@]1(O)[C@H](O)[C@@H]2[C@@]3(O)[C@@H]4O[C@@](O)(C[C@@]2(C)[C@@]2(O)CC[C@@H](C)[C@@H]42)[C@]31C [ITOL A]	47.5	29.3	22.5	34.8	0.22	0.22	>2	>2
CC(C)[C@@H]1[C@H](O)[C@H]2C(C)(CO)[C@@]3(O)CC[C@@H](C)[C@H]3[C@H]3OC[C@]1(C)[C@]32O (stereo not given in full) [13-DEOXYITOL A]	50.1	23.5	29.3	38.9	0.22	0.22	>2	>2
